Four compounds from DBAASP can be followed below.

Among the test systems are Candida albicans SC5314; Escherichia coli 09-240; Escherichia coli 09-280; Escherichia coli 170; Escherichia coli 5509.
Experiment in all cases: ≥ marks a high value that may be exact or a test limit, other limits are often not marked, values filed in µg/mL are converted to µM
For assay [1], the system named is Escherichia coli HP101BA 7601c.
Assay [2] relates to Klebsiella pneumoniae PTCC 1388.
The test system of assay [3] is Staphylococcus aureus PTCC 1431.
Assay [4] has as its system Streptococcus agalactiae PTCC 1365.
The subject of assay [5] is Streptococcus dysgalactiae PTCC 1074.
Assay [6] concerns Acinetobacter baumannii I NM8.
Assay [7] deals with Candida albicans ATCC 90028.
The test system of assay [8] is Escherichia coli ATCC 25726.
The subject of assay [9] is Klebsiella pneumoniae ATCC 700603.
The subject of assay [10] is Pseudomonas aeruginosa ATCC 27853.
The test system of assay [11] is Staphylococcus aureus ATCC 25923.
For assay [12], the system named is Acinetobacter baumannii ATCC 19606.
The test system of assay [13] is Bordetella bronchiseptica CUN 11844-99.
Assay [14] concerns Escherichia coli ATCC 25922.
Assay [15] has as its system Pseudomonas aeruginosa CUN 4158-02.
The subject of assay [16] is Staphylococcus aureus ATCC 43300.
Assay [17] relates to Staphylococcus aureus CUN 3792-99.
Assay [18] relates to Stenotrophomonas maltophilia CUN 3998-00.
The test system of assay [19] is Acinetobacter baumannii 5821.
Assay [20] has as its system Candida glabrata ATCC 90030.
Assay [21] has as its system Candida parapsilosis ATCC 22019.
The test system of assay [22] is Candida tropicalis ATCC 750.
Assay [23] relates to Cryptococcus neoformans var. grubii H99.
Assay [24] deals with Cryptococcus neoformans var. neoformans B3501.
The subject of assay [25] is Enterobacter cloacae 06-267.
The subject of assay [26] is Enterobacter cloacae 14-262.
For assay [27], the system named is Klebsiella pneumoniae 01-239.
Assay [28] deals with Klebsiella pneumoniae 01-252.
The subject of assay [29] is Pseudomonas aeruginosa 3599.
In assay [30] the test system is Pseudomonas aeruginosa 5106.
Assay [31] has as its system Pseudomonas aeruginosa ATCC 9027.
Assay [32] relates to Staphylococcus aureus 01-001.
Assay [33] relates to Staphylococcus aureus 06-051.
The subject of assay [34] is Staphylococcus aureus ATCC 29213.

Values after ≈ are worked out from the molar mass of the structure shown.

Usually MIC stands for the lowest concentration found to suppress growth. A low value points to greater potency. In the case of `CC(C)C[C@H](NC(=O)[C@H](C)NC(=O)[C@H](C)NC(=O)[C@H](CC(N)=O)NC(=O)[C@H](Cc1ccccc1)NC(=O)[C@H](CC(C)C)NC(=O)[C@@H]1CCCN1C(=O)[C@H](CCCCN)NC(=O)[C@H](CC(C)C)NC(=O)[C@@H](N)Cc1ccccc1)C(=O)N[C@@H](CCCCN)C(=O)N[C@@H](CC(C)C)C(=O)N[C@@H](CC(C)C)C(=O)N1CCC[C@H]1C(N)=O` [FLKPLFNAALKLLP], the MIC was 15.3 µM (≈ 24.2 µg/mL) in [1]; 19.7 µM (≈ 31.2 µg/mL) in assay [2]; 22.2 µM (≈ 35.2 µg/mL) in [3]; 15.6 µM (≈ 24.7 µg/mL) in assay [4]; 20.9 µM (≈ 33.2 µg/mL) in assay [5].
Take `CC[C@H](C)[C@H](NC(=O)[C@H](CC(C)C)NC(=O)[C@H](Cc1cnc[nH]1)NC(=O)[C@@H]1CCCN1C(=O)[C@H](CC(C)C)NC(=O)[C@@H](NC(=O)[C@H](CCCCN)NC(=O)[C@H](C)NC(=O)[C@@H](NC(=O)CNC(=O)[C@H](CCCCN)NC(=O)[C@H](CC(C)C)NC(=O)CNC(=O)[C@H](CC(C)C)NC(=O)[C@H](CCCCN)NC(=O)[C@H](CC(C)C)NC(=O)[C@H](CC(C)C)NC(=O)[C@@H]1CCCN1C(=O)CNC(=O)[C@H](CC(C)C)NC(=O)[C@H](Cc1ccccc1)NC(=O)CN)C(C)C)C(C)C)C(=O)N1CCC[C@H]1C(=O)N[C@@H](CO)C(=O)N[C@@H](CCCN=C(N)N)C(=O)N[C@@H](CCC(N)=O)C(=O)N[C@@H](CCC(N)=O)C(=O)O` [GFLGPLLKLGLKGVAKVLPHLIPSRQQ]: the MIC in assay [6] is 12.5 µM (≈ 36 µg/mL); in assay [7], 25 µM (≈ 72 µg/mL); in assay [8] it was 25 µM (≈ 72 µg/mL); in assay [9], 25 µM (≈ 72 µg/mL); in [10], 6 µM (≈ 17.3 µg/mL); in [11], 6 µM (≈ 17.3 µg/mL).
In the case of `NCCCC[C@H](NC(=O)CN)C(=O)N[C@@H](CCCCN)C(=O)N[C@@H](Cc1ccc(O)cc1)C(=O)N[C@@H](CCCN=C(N)N)C(=O)N[C@@H](CCCN=C(N)N)C(=O)N[C@@H](Cc1ccccc1)C(=O)N[C@@H](CCCN=C(N)N)C(=O)N[C@@H](Cc1c[nH]c2ccccc12)C(=O)N[C@@H](CCCCN)C(=O)N[C@@H](Cc1ccccc1)C(=O)N[C@@H](CCCN=C(N)N)C(=O)N[C@@H](CCCCN)C(=O)NCC(=O)N[C@@H](CCCN=C(N)N)C(=O)N[C@@H](Cc1ccccc1)C(=O)N[C@@H](Cc1c[nH]c2ccccc12)C(=O)N[C@@H](Cc1ccccc1)C(=O)N[C@@H](Cc1c[nH]c2ccccc12)C(=O)NCC(N)=O` [GKKYRRFRWKFRKGRFWFWG], the MIC in [12] is 5.73 µM (≈ 16 µg/mL); in assay [13], 1.43 µM (≈ 4 µg/mL); in [14], 5.73 µM (≈ 16 µg/mL); in [10] it was 5.73 µM (≈ 16 µg/mL); in assay [15] it was 11.5 µM (≈ 32 µg/mL); in assay [11], 5.73 µM (≈ 16 µg/mL). Further, the MIC was 5.73 µM (≈ 16 µg/mL) in assay [16], 5.73 µM (≈ 16 µg/mL) in assay [17] and 22.9 µM (≈ 64 µg/mL) in assay [18].
Regarding `CC[C@H](C)[C@H](N)C(=O)N[C@@H](CC(C)C)C(=O)N[C@@H](CO)C(=O)N[C@@H](C)C(=O)N[C@H](C(=O)N[C@@H](Cc1c[nH]c2ccccc12)C(=O)N[C@@H](CO)C(=O)NCC(=O)N[C@H](C(=O)N[C@@H](CCCCN)C(=O)N[C@@H](CO)C(=O)N[C@@H](CC(C)C)C(=O)N[C@@H](Cc1ccccc1)C(N)=O)[C@@H](C)CC)[C@@H](C)CC` [ILSAIWSGIKSLF], the MIC was 10 µM (≈ 14.3 µg/mL) in assay [19]; 25 µM (≈ 35.8 µg/mL) in the assay with Candida albicans SC5314; at least 400 µM in assay [20]; at least 400 µM in [21]; 25 µM (≈ 35.8 µg/mL) in assay [22]; 25 µM (≈ 35.8 µg/mL) in assay [23]. In addition, the MIC is 12.5 µM (≈ 17.9 µg/mL) in assay [24]; at least 32 µM in [25]; at least 32 µM in [26]; 30 µM (≈ 43 µg/mL) in the assay with Escherichia coli 09-240; at least 32 µM with Escherichia coli 09-280; at least 32 µM in the assay on Escherichia coli 170. The MIC against Escherichia coli 5509 was at least 32 µM; in assay [14], 15 µM (≈ 21.5 µg/mL); in assay [27], 30 µM (≈ 43 µg/mL); in assay [28], at least 32 µM; in assay [29] it was at least 32 µM; in assay [30], at least 32 µM. Further, the MIC in assay [10] was over 32 µM; in [31], 6 µM (≈ 8.6 µg/mL); in [32], 4 µM (≈ 5.74 µg/mL); in [33] it was 4 µM (≈ 5.74 µg/mL); in [11], 10 µM (≈ 14.3 µg/mL); in assay [34] it was 8 µM (≈ 11.5 µg/mL).
